Data from US20060051764A1, “Thymidylate synthase polymorphisms for use in screening for cancer susceptibility” (priority 2002, published 2006).

Tests used:
[1] = tested on: disseminated colorectal cancer; assay: Clinical outcome (response and survival) to protracted infusion of 5-FU in colorectal cancer patients by TS genotype; type: in vivo, human
Description: To explore the role of SNP as a predictive marker, 40 patients were evaluated with disseminated colorectal cancer (SWOG 9420 and 3C-92-2) for response and survival to protracted infusion of 5-fluorouracil. The distribution of the TS tandem repeat polymorphism was as follows: 2R/2R 20% (8/40), 2R/3R 50% (20/40), and 3R/3R 30% (12/40). […] This relationship also lacked statistical significant (P=0.14, Logrank Test).
Patient samples were re-classified into two groups based on predicted high and low TS expression using the tandem repeat polymorphism and the SNP. Since it was hypothesized that the SNP, or variant 3R (3RV) allele, would decrease the TS gene expression of a 3R allele, 21 patients were grouped with genotypes of 2R/2R, 2R/3RV and 3RV/3RV into the predicted “low TS expression” group (Group A) and 19 patients with 2R/3R, 3R/3RV, and 3R/3R into the predicted “high TS expression” group (Group B). These groups were then re-evaluated for an association between TS genotypes and clinical outcome to 5-FU chemotherapy.
The presence of the new SNP within the TS gene was confirmed in Non-Hispanic Whites. Individuals (disease-free controls) were initially recruited for a cancer case-control study in California as described in Castelao et al., 2001. Patients included in this study has metastatic colorectal cancer and were enrolled in the following protocols: Southwest Oncology Group protocol 9420 (19 patients, 5-FU doses used: CI (continuous infusion) 300 mg/m^2/d v. CI 2600 mg/m^2/d q weekly) opened for accrual in May 1995 and closed in May 1999; and the University of Southern California protocol: 3C-92-2 (21 patients, 5-FU doses used: CI 200 mg/m^2/d q weekly for three weeks followed by one week rest) opened for accrual in September 1992 and closed in June 1995. All patients signed an informed consent to participate in the clinical trial and for evaluation of the TS polymorphism. Genotyping for the TS polymorphism was performed on paraffin-embedded tissues in all patients.
All patients had bi-dimensionally measurable disease at the time of protocol entry. Responders to therapy were classified as those patients whose tumor burden (the sum, overall measurable lesions of the products of the largest diameter and its perpendicular diameter) decreased by 50% or more for at least six weeks. Progressive disease was defined as 25% or more increase in tumor burden (compared to the smallest measurement) or the appearance of new lesions.
Survival was computed as the number of months from the initiation of chemotherapy with 5-FU to death of any cause. Patients who were alive at the last follow-up evaluation were censored at that time.
Contingency tables and Fisher's exact test (Metha et al., 1983) were used to summarize the association of response (grouped as response, stable disease, and progressive disease) to 5-FU with the TS genotypes. Kaplan-Meier plots (Kaplan et al., 1958) and the log-rank test (Miller et al., 1981) were used to compare survival of patients according to TS genotypes. Median survival was calculated based on the Kaplan-Meier estimator. All p-values are two-sided.

[2] = biological target: T1, USF-1 phosphorylated by cdc2/p34 (Homo sapiens, UniProt P22415 P22415:1-310); assay: EMSA; consensus probe; sequence taken from the listed USF-1 specific oligonucleotide; details: tags: N-terminal 6xHis (pProEX-HTb, E. coli), in vitro phosphorylated with cdc2/p34; chain copies: 2; label: 32P when used as probe
Description: When both forms of USF-1 were used in an EMSA assay utilizing the perfect USF-1 consensus element as a probe, only the phosphorylated form was able to bind (FIG. 3B, lanes 2 and 3). Gel mobility shift analyses were performed using recombinant USF-1 with a ³²P-labeled USF-1 specific consensus probe containing an intact E-box site. Lane 1 contained only free probe. Lane 2 was 30 ng of recombinant phospho-USF-1 incubated with probe in the absence of unlabeled competitor oligonucleotides. Lane 3 contained 30 ng of recombinant unphosphorylated USF-1 incubated with probe in the absence of unlabeled specific competitor oligonucleotides. In lanes 4-5, phospho-USF-1 was pre-incubated with 500 molar excess of unlabeled USF-1 specific competitor oligonucleotide and 500 molar excess of nonspecific dIdC competitor, respectively.
Synthetic double-stranded oligonucleotides (Integrated DNA Technologies) corresponding to a wild type (R) or variant (RV) 28 bp tandem repeat sequence from the TS 5′ regulatory region were labeled with [γ-³²P] ATP (Amersham Pharmacia Biotech) according to the Gel-Shift Assay Kit protocol (Promega). For each gel shift reaction, 10,000 cpm of labeled probe 30 ng of recombinant USF-1 for 20 min at room temperature in a 20 μl reaction mixture containing 10 mM Tris-HCl, pH 7.5, 50 mM NaCl, 0.5 mM dithiothreitol, 0.5 mM EDTA, 4% glycerol, 1 mM MgCl₂ and 0.1 μg of poly(dIdC) DNA. […]

[3] = biological target: T1, USF-1 phosphorylated by cdc2/p34; assay: EMSA; 1 mM MgCl2, 50 mM NaCl, room temperature; details: tags: N-terminal 6xHis (pProEX-HTb, E. coli), in vitro phosphorylated with cdc2/p34; chain copies: 2; label: 32P
Description: Since the potential G→C SNP at the 12th nucleotide of the 28 bp repeats lies within the USF binding site, the ability of the recombinant USF-1 protein to bind the variant consensus element by EMSA was tested. […] Gel mobility shift analyses were performed using recombinant USF-1 with a ³²P-labeled 28 bp probe corresponding to one tandem repeat containing a G→C base change at the 12th nucleotide. Lane 1 was free probe. In lane 2, 30 ng of recombinant USF-1 was incubated with probe. In lane 3, 30 ng of phospho-USF-1 was incubated with probe.
Synthetic double-stranded oligonucleotides (Integrated DNA Technologies) corresponding to a wild type (R) or variant (RV) 28 bp tandem repeat sequence from the TS 5′ regulatory region were labeled with [γ-³²P] ATP (Amersham Pharmacia Biotech) according to the Gel-Shift Assay Kit protocol (Promega). For each gel shift reaction, 10,000 cpm of labeled probe 30 ng of recombinant USF-1 for 20 min at room temperature in a 20 μl reaction mixture containing 10 mM Tris-HCl, pH 7.5, 50 mM NaCl, 0.5 mM dithiothreitol, 0.5 mM EDTA, 4% glycerol, 1 mM MgCl₂ and 0.1 μg of poly(dIdC) DNA. Where indicated, unlabeled competitor oligonucleotides were incubated for 10 min at room temperature with nuclear extracts prior to addition of labeled probe.
Reactions using recombinant USF-1 contained ˜30 ng of either USF-1 or phospho USF-1. […]

[4] = biological target: T1, USF-1 phosphorylated by cdc2/p34; assay: EMSA; 1 mM MgCl2, 50 mM NaCl, room temperature; abolished by USF-1 specific competitor; details: tags: N-terminal 6xHis (pProEX-HTb, E. coli), in vitro phosphorylated with cdc2/p34; chain copies: 2; label: 32P
Description: To determine the ability of the phosphorylated form of USF-1 to bind to its consensus element within the TS repeat, an EMSA assay was carried out using the ³²P-labeled 28 bp sequence as a probe corresponding to one tandem repeat containing an intact E-box site. Lane 1 was free probe. In lane 2, 30 ng of recombinant USF-1 was incubated with probe in the absence of unlabeled competitor oligonucleotides. In lane 3, 30 ng of phospho-USF-1 was incubated with probe in the absence of unlabeled competitor oligonucleotides. In lanes 4-6, phospho-USF-1 was pre-incubated with 500 molar excess of: unlabeled probe, USF-1 specific competitor, and non-specific poly (dIdC) competitor oligonucleotides, respectively. Incubation of the phosphorylated form of USF-1 with the probe caused a shift on the gel that was abolished by the addition of unlabeled specific competitor oligonucleotides (FIG. 3C, lanes 3 and 5).
Synthetic double-stranded oligonucleotides (Integrated DNA Technologies) corresponding to a wild type (R) or variant (RV) 28 bp tandem repeat sequence from the TS 5′ regulatory region were labeled with [γ-³²P] ATP (Amersham Pharmacia Biotech) according to the Gel-Shift Assay Kit protocol (Promega). […]

[5] = patients with TS genotype 2R/2R (n = 8)
[6] = patients with TS genotype 2R/3R (n = 20)
[7] = patients with TS genotype 3R/3R (n = 12)

T1 sequence (P22415 whole entry, one chain of several): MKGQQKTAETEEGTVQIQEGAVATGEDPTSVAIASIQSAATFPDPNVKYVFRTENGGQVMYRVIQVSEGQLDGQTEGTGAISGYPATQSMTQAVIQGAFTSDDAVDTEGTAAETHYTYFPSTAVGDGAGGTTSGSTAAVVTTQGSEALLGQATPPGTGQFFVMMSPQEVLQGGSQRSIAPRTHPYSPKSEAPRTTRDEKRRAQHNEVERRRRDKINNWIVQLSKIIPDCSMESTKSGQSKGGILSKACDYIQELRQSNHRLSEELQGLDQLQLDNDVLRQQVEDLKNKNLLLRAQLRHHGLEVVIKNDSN

O=c1[nH]cc(F)c(=O)[nH]1 [5-FU, 5-fluorouracil]
median survival ([1]; 3R/3R carriers): 8.4 months
survival ([1]; Group A, predicted low TS expression (2R/2R, 2R/3RV, 3RV/3RV)): 10.1 months
Clinical Response: Stable Disease ([1]; Group A, predicted low TS expression: 2R/2R, 2R/3RV, 3RV/3RV (n = 21)): 4 (19%)
survival ([1]; Group B, predicted high TS expression (2R/3R, 3R/3RV, 3R/3R)): 7.4 months
Clinical Response: Stable Disease ([1]; Group B, predicted high TS expression: 2R/3R, 3R/3R, 3R/3RV (n = 19)): 7 (37%)
median survival ([1]; heterozygous group (2R/3R)): 7.4 months
median survival ([1]; patients with TS genotype 2R/2R): 16.2 months
Clinical Response: Progression [1, 5]: 3 (37%)
Clinical Response: Stable Disease [1, 5]: 1 (13%)
Clinical Response: Progression [1, 6]: 12 (60%)
Clinical Response: Stable Disease [1, 6]: 5 (25%)
disease response (patients responding/total) ([1]; patients with TS genotype 3R/3R): 0/12
Clinical Response: Progression [1, 7]: 7 (58%)
Clinical Response: Response [1, 7]: 0 (0%)
Clinical Response: Stable Disease [1, 7]: 5 (42%)

B1: USF-1 consensus oligonucleotide (dsDNA)
DNA 1: CACCCGGTCACGTGGCCTACACC
DNA 2: GGTGTAGGCCACGTGACCGGGTG
binding result [2]: binds

B2: TS variant tandem repeat (RV) (dsDNA)
DNA 1: CCGCGCCACTTCGCCTGCCTCCGTCCCG
DNA 2: CGGGACGGAGGCAGGCGAAGTGGCGCGG
binding result [3]: no binding

B3: TS wild-type tandem repeat (R) (dsDNA)
DNA 1: CCGCGCCACTTGGCCTGCCTCCGTCCCG
DNA 2: CGGGACGGAGGCAGGCCAAGTGGCGCGG
binding result [4]: binds
